Laboratory results from US10052306B2 (LUC THERAPEUTICS, INC., priority 2013, dated 2018).

Biological target: NR1/NR2B (Homo sapiens (Human), UniProt Q05586+Q13224)
Experiment: Cell assay: FDSS Ca2+ influx inhibition in HEK293 cells expressing NR1/NR2B;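 note: Fluo-8 Ca2+ signal read on Hamamatsu FDSS 6000 after glutamate, glycine and Ca2+ challenge following 10 min compound preincubation, end/baseline fluorescence ratio compared with MK801 control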
Conditions: Ca2+ influx
[1] = Binned Activity, HEK293 cells expressing NR1/NR2B, binned NR2B NAM IC50
[2] = NR2B NAM IC50, HEK293 cells expressing NR1/NR2B

NR1/NR2B, sequence (Q13224 27-1484, other chains not shown): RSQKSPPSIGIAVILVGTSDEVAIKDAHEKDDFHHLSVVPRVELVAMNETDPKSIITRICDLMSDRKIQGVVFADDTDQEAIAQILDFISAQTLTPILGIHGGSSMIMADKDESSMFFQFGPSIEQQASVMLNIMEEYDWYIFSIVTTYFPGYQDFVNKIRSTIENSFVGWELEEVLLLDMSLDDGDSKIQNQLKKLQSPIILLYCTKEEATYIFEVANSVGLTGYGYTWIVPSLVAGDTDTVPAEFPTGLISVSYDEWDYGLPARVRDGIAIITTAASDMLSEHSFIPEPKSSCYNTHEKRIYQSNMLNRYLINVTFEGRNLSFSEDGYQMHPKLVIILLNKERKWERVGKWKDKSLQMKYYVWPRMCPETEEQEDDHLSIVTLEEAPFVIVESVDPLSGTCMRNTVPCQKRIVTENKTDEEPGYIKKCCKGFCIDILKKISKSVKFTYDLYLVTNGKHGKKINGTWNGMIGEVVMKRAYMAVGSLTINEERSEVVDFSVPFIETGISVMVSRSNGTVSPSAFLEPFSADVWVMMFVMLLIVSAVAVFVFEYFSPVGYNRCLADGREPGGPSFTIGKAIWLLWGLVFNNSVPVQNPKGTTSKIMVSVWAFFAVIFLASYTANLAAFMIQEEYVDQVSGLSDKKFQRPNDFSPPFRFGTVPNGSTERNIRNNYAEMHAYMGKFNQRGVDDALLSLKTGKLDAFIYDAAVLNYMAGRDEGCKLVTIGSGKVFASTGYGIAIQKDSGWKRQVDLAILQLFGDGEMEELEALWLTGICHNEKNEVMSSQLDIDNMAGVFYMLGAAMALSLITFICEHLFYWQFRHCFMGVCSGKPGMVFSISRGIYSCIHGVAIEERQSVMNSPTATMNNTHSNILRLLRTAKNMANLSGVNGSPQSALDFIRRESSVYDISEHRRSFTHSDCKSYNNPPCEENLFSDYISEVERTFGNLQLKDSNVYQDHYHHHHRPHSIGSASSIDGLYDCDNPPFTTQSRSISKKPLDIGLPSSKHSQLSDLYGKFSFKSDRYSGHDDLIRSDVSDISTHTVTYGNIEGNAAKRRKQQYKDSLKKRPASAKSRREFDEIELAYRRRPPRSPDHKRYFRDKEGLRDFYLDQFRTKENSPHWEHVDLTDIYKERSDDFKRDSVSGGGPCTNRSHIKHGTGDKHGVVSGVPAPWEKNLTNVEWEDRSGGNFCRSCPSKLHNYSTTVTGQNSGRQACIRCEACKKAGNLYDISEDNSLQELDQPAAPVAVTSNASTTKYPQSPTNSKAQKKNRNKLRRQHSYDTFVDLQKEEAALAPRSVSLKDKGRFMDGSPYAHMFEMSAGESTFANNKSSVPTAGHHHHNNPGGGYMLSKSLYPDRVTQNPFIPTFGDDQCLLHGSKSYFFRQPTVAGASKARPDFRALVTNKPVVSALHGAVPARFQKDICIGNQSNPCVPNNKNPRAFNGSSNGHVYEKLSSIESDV

IC50 [1] | IC50 [2] | SMILES
> 10000 nM | ≥ 10000 nM | CC(C)(C)C(=O)Nc1ccc(C(O)CN2C[C@@H]3C[C@@](O)(Cc4ccccc4)C[C@@H]3C2)cn1 (mixture of isomers) [Example 286, rac-N-(5-(2-(5-benzyl-5-hydroxyhexahydrocyclo-penta[c]pyrrol-2(1H)-yl)-1-hydroxyethyl)pyridin-2-yl)pivalamide]
100 to 1000 nM | 748 nM | OC(CN1C[C@@H]2C[C@@](O)(Cc3ccccc3)C[C@@H]2C1)c1ccc2[nH]nnc2c1 (mixture of isomers) [Example 186, rac-(3aR,5R,6aS)-2-[2-(1H-1,2,3-benzotriazol-5-yl)-2-hydroxyethyl]-5-benzyl-octahydrocyclopenta[c] pyrrol-5-ol]
> 10000 nM | ≥ 10000 nM | OC(CN1C[C@H]2CC(Cc3ccccc3)C[C@H]2C1)c1cccc(C(F)(F)F)c1 (mixture of isomers) [Example 309, rac-2-((3aR,6aS)-5-benzylhexahydrocyclo-penta[c]pyrrol-2(1H)-yl)-1-(3-(trifluoromethyl)phenyl) ethanol]
 | 75.7 nM | Cc1cc(F)ccc1C[C@]1(O)C[C@H]2CN(CC(O)c3ccc(O)cn3)C[C@H]2C1 (mixture of isomers) [Example 243, rac-(3aR,5r,6aS)-5-(4-fluoro-2-methylbenzyl)-2-(2-hydroxy-2-(5-hydroxypyridin-2-yl)ethyl)octahydrocyclo-penta[c]pyrrol-5-ol]
< 100 nM | 26.9 nM | Oc1ccc(C(O)CN2C[C@@H]3C[C@@](F)(Cc4ccccc4)C[C@@H]3C2)cc1 (mixture of isomers) [Example 313, rac-4-(2-((3aR,5r,6aS)-5-benzyl-5-fluoro-hexahydrocyclopen-ta[c]pyrrol-2(1H)-yl)-1-hydroxyethyl)phenol]
 | 42.5 nM | Cc1cc(F)ccc1C[C@]1(O)C[C@H]2CN(CC(O)c3ccc(O)cc3)C[C@H]2C1 (mixture of isomers) [Example 254, rac-(3aR,5r,6aS)-5-(4-fluoro-2-methylbenzyl)-2-(2-hydroxy-2-(4-hydroxyphenyl)ethyl) octahydrocyclopenta[c] pyrrol-5-ol]
 | 41.5 nM | Cc1ccc(C[C@]2(O)C[C@H]3CN(CC(O)c4ccc(O)cc4)C[C@H]3C2)cc1 (mixture of isomers) [Example 182, rac-(3aR,5R,6aS)-2-[2-hydroxy-2-(4-hydroxyphenyl)ethyl]-5-[(4-methylphenyl)methyl]-octahydrocyclopenta[c] pyrrol-5-ol]
< 100 nM | 40.9 nM | Oc1ccc(C(O)CN2C[C@@H]3C[C@@](O)(Cc4ccccc4F)C[C@@H]3C2)nc1 (mixture of isomers) [Example 228, rac-5-(2-fluorobenzyl)-2-(2-hydroxy-2-(5-hydroxypyridin-2-yl)ethyl)octahydrocyclo-penta[c]pyrrol-5-olyl)ethanone]
 | 34.9 nM | Cc1ccccc1C[C@]1(O)C[C@H]2CN(CC(O)c3ccc(O)cc3)C[C@H]2C1 (mixture of isomers) [Example 185, rac-(3aR,5r,6aS)-2-(2-hydroxy-2-(4-hydroxyphenyl)ethyl)-5-(2-methylbenzyl)octahydro-cyclopenta[c]pyrrol-5-ol]
 | 22.4 nM | Oc1ccc(C(O)CN2C[C@H]3CC(Cc4ccccc4)C[C@H]3C2)nc1 (mixture of isomers) [Example 298, rac-6-(2-{5-benzyl-octahydrocyclopenta[c]pyrrol-2-yl}-1-hydroxyethyl)pyridin-3-ol]
 | 12.6 nM | Oc1ccc(C(O)CN2C[C@@H]3C[C@@](O)(Cc4cccs4)C[C@@H]3C2)cc1 (mixture of isomers) [Example 204, rac-(3aR,5r,6aS)-2-(2-hydroxy-2-(4-hydroxyphenyl)ethyl)-5-(thiophen-2-ylmethyl)octahydrocyclo-penta[c]pyrrol-5-ol]
< 100 nM | 74.3 nM | Oc1ccc(C(O)CN2C[C@H]3CN(Cc4ccccc4)C[C@H]3C2)cc1F (mixture of isomers) [Example 341, rac-4-(2-(5-benzylhexahydropyrrolo [3,4-c]pyrrol-2(1H)-yl)-1-hydroxyethyl)-2-fluorophenol]

Further lines, the compound ahead of its results:

SMILES | IC50 [1] | IC50 [2]
O=c1ccc(C(O)CN2C[C@@H]3C[C@@](O)(Cc4ccccc4)C[C@@H]3C2)n[nH]1 (mixture of isomers) [Example 158, rac-6-(2-((3aR,5r,6aS)-5-benzyl-5-hydroxyhexahydrocyclo-penta[c]pyrrol-2(1H)-yl)-1-hydroxyethyl)pyridazin-3(2H)-one] | > 10000 nM | ≥ 10000 nM
Cc1ccccc1[C@]1(O)C[C@H]2CN(C(C)C(=O)c3ccc(O)cc3)C[C@H]2C1 (mixture of isomers) [Example 94, rac-2-[5-hydroxy-5-(2-methylphenyl)-octahydrocyclopenta[c]pyrrol-2-yl]-1-(4-hydroxyphenyl)propan-1-one] | > 10000 nM | ≥ 10000 nM
CC(C(=O)c1ccc(O)cc1)N1C[C@@H]2C[C@@](O)(Cc3ccccc3)C[C@@H]2C1 (mixture of isomers) [Example 293, rac-2-((3aR,5r,6aS)-5-benzyl-5-hydroxyhexahydrocyclo-penta[c]pyrrol-2(1H)-yl)-1-(4-hydroxyphenyl)propan-1-one] |  | 100 nM
Oc1ccc(C(O)CN2C[C@@H]3C[C@@](O)(Cc4ccccc4)C[C@@H]3C2)cc1 (mixture of isomers) [Example 131, rac-(3aR,5r,6aS)-5-benzyl-2-(2-hydroxy-2-(4-hydroxyphenyl)ethyl)octa-hydrocyclopenta[c]pyrrol-5-ol] | < 100 nM | 25.5 nM
COc1cccc([C@]2(O)C[C@H]3CN(CC(O)c4ccc(Cl)cc4Cl)C[C@H]3C2)c1 (mixture of isomers) [Example 74, rac-2-[2-(2,4-dichlorophenyl)-2-hydroxyethyl]-5-(3-methoxyphenyl)-octahydrocyclopenta[c] pyrrol-5-ol] | > 10000 nM | ≥ 10000 nM
COc1cccc(NC(=O)N2C[C@@H]3C[C@@](O)(c4ccc(F)cc4)C[C@@H]3C2)c1 [Example 37] | > 10000 nM | 
O=C(Nc1ccc(Cl)c(C(F)(F)F)c1)N1C[C@@H]2C[C@@](O)(c3ccc(F)cc3)C[C@@H]2C1 [Example 43] | > 10000 nM | ≥ 10000 nM
Cc1ccccc1[C@]1(O)C[C@H]2CN(C(=O)Nc3cccc(Cl)c3)C[C@H]2C1 [Example 11] | > 10000 nM | 
COC(=O)c1ccc(NC(=O)N2C[C@@H]3C[C@@](O)(c4ccc(C(C)(C)C)cc4)C[C@@H]3C2)cc1 [Example 50] | > 10000 nM | 
Cc1ccccc1[C@]1(O)C[C@H]2CN(C(C)C(O)c3ccc(O)cc3)C[C@H]2C1 (mixture of isomers) [Example 95, rac-2-[1-hydroxy-1-(4-hydroxyphenyl)propan-2-yl]-5-(2-methylphenyl)-octahydrocyclopenta[c] pyrrol-5-ol] | > 10000 nM | ≥ 10000 nM
Cc1ccc(NC(=O)N2C[C@@H]3C[C@@](O)(c4ccccc4C)C[C@@H]3C2)cc1 [Example 9] | > 10000 nM | 
Cc1ccccc1[C@]1(O)C[C@H]2CN(CC(O)c3cccc(C(F)(F)F)c3)C[C@H]2C1 (mixture of isomers) [Example 72, rac-2-{2-hydroxy-2-[3-(trifluoromethyl)phenyl]ethyl}-5-(2-methylphenyl)-octahydrocyclopenta[c] pyrrol-5-ol] | > 10000 nM | ≥ 10000 nM
COc1ccc(NC(=O)N2C[C@@H]3C[C@@](O)(c4cccc(OC)c4)C[C@@H]3C2)cc1 [Example 17, 5-hydroxy-5-(3-methoxyphenyl)-N-(4-methoxyphenyl)-octahydrocyclopenta[c] pyrrole-2-carboxamide] | > 10000 nM | 
